This experiment in a line: Compound was evaluated for its ability to displace [3H](+)-pentazocine from sigma receptor in Guinea pig brain.
In general, Ki refers to a measure of affinity in units of concentration, obtained from inhibition or displacement. As to `c1ccc([C@]2(N3CCCCC3)CC[C@H]3C[C@H]32)cc1`, the Ki is 4.45 µM. On to `c1ccc([C@]2(N3CCCCC3)CC[C@@H]3C[C@@H]32)cc1`, for which the Ki stood at 7.28 µM.

For the compound `c1ccc([C@@]2(N3CCCCC3)CC[C@H]3C[C@H]32)cc1`, affinity was put at a Ki of 1.13 µM.

The values are drawn from BindingDB's records for doi:10.1021/jm00103a008 (National Institute of Diabetes and Digestive and Kidney …, 1993).
